Test results: article PMC4551797 (PLoS ONE, 2015)

Experiments:
gallbladder = details: cited from earlier work
C57BL/6 mice [1] = assay: Oral glucose tolerance test, glucose only; details: 100 mg/kg oral, glucose 3 g/kg 15 min after compound
Procedure: For measurement of glucose only, overnight-fasted C57BL/6 mice in a normal light cycle were orally dosed with vehicle or compound, followed by an oral bolus of 3 g/kg glucose at 15 minutes post compound. At 0, 20, 40, 60, and 120 minutes post glucose dose, blood glucose was assessed via glucometers. Resulting raw data was used to generate AUCs. […] At 0, 15, 30, 60, and 120 minutes post glucose dose, blood glucose was assessed via glucometers. Resulting raw data was used to generate AUCs.

[2] = Plasma compound levels after oral dosing (LC-MS/MS); details: C57BL/6, mouse, 100 mg/kg
C57BL/6 mice [3] = assay: Three-day study on GLP-1 and gallbladder filling (bile weight); type: in vivo, mouse; details: 100 mg/kg oral BID 3 days, 30 min after last dose
Procedure: C57BL/6 mice, Tgr5 KO mice, or their wild-type littermate controls were orally dosed with vehicle or compounds twice per day for 3 days, with overnight fasting performed on the evening of day 2. On the morning of day 3, animals were dosed orally with compounds and then euthanized by CO2 asphyxiation at 30 minutes after the fifth dose. Plasma was collected for analysis of GLP-1 (X-36) amide as mentioned above, followed immediately by incision into the abdominal cavity to remove and weigh bile from the gallbladder.
On the third day, compound was dosed in the morning followed 30 minutes later by measurement of bile filling (A) by use of a needle and syringe and GLP-1 (x-36) amide (B) by cardiac puncture.

C57BL/6 mice [4] = assay: Acute in vivo incretin secretion assay (plasma GLP-1 and PYY AUC); details: 100 mg/kg oral, fasted mice, 3-hour time course
Description: Plasma was separated by centrifugation, aliquoted, and analyzed for GLP-1 (X-36) amide (Mesoscale Discovery) and total PYY (Millipore). Resulting raw data was used to generate area under the curve analyses (AUCs).

C57BL/6 mice [5] = assay: Oral glucose tolerance test with hormone measurement; type: in vivo, mouse; details: 10 mg/kg oral, glucose 3 g/kg, 1 hour
Procedure: For measurement of glucose only, overnight-fasted C57BL/6 mice in a normal light cycle were orally dosed with vehicle or compound, followed by an oral bolus of 3 g/kg glucose at 15 minutes post compound. At 0, 20, 40, 60, and 120 minutes post glucose dose, blood glucose was assessed via glucometers. Resulting raw data was used to generate AUCs. For measurement of hormones and glucose, overnight-fasted C57BL/6 mice acclimated for two weeks to a reverse light cycle were orally dosed with vehicle or compound, followed by an oral bolus of 3 g/kg glucose at 15 minutes post compound. At 0, 2, 5, 10, 20, 40, and 60 minutes post glucose dose, blood glucose was assessed via glucometers, followed immediately by collection of plasma for active GLP-1 (Mesoscale Discovery), insulin (Mesoscale Discovery), and total PYY. Glucose tolerance tests in diet-induced obese (DIO) C57BL/6 mice were performed in overnight-fasted animals dosed either acutely or after 2-week administration with vehicle or compound 18 at 60 mg/kg, followed 30 minutes post compound by an oral bolus of 2 g/kg glucose. At 0, 15, 30, 60, and 120 minutes post glucose dose, blood glucose was assessed via glucometers. Resulting raw data was used to generate AUCs.
To evaluate glucose, insulin, GLP-1, and PYY levels throughout the OGTT, each time-point consisted of a separate group of mice that were used to record glucose by use of a glucometer followed by terminal bleeds for measurement of active GLP-1, total PYY, and insulin. AUCs were then calculated for the entire hour of the OGTT. […] Changes in insulin AUCs were not increased with treatment of either sitagliptin or compound 18, likely due to the lower glucose levels reducing the drive for glucose-stimulated insulin secretion (Fig 5D).
Fig 5 Compound 18 increases GLP-1 and PYY and lowers the glucose and insulin excursions as compared to sitagliptin in an OGTT in C57BL/6 mice. […] Plasma was analyzed for active GLP-1 (A), total PYY (B), and insulin (D), while blood glucose was measured by glucometers (C).

Row | Structure (SMILES) | gallbladder filling with bile (gallbladder) | effect on glucose tolerance in OGTT (C57BL/6 mice [1]) | AUC(0-t) [2] | Cmax [2] | Tmax [2] | bile weight (gallbladder filling) (C57BL/6 mice [3]) | plasma GLP-1 levels (C57BL/6 mice [3]) | GLP-1 AUC increase over vehicle (C57BL/6 mice [4]) | PYY AUC increase over vehicle (C57BL/6 mice [4]) | insulin AUC during OGTT (C57BL/6 mice [5])
1 | CC[C@H]1[C@@H](O)[C@@H]2[C@H](C[C@H](O)[C@]3(C)[C@@H]([C@H](C)C[C@H](C)C(=O)O)CC[C@@H]23)[C@@]2(C)CC[C@@H](O)C[C@@H]12 [INT-777, 6α-ethyl-23(S)-methylcholic acid, reference compound] | stimulated gallbladder filling with bile | no detectable improvement of glucose tolerance | 264 µM·h | 136 µM | 1.5 h | significant increase in bile weight | no detectable increase in GLP-1 | 2.8 fold over vehicle | 1.6 fold over vehicle | 
2 | N[C@@H](CC(=O)N1CCn2c(nnc2C(F)(F)F)C1)Cc1cc(F)c(F)cc1F [sitagliptin, reference compound] |  |  |  |  |  |  |  |  |  | not increased
